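Test compounds were applied to cells in 96-well plates for 48 hours at 5 doses. At the GI50, growth is halved.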 Activity calls are given as the source filed them. No stated cut-off is given here; in the data, active = GI50 up to about 1.1 µM and inactive = higher.
Assays:
Assay in all cases: NCI tumour cell line growth inhibition, 48 h
K562 = tested on: K562
NCI-H23 = tested on: NCI-H23
ACHN = tested on: ACHN
OVCAR-4 = tested on: OVCAR-4
786-0 = tested on: 786-0
HOP-62 = tested on: HOP-62
SNB-78 = tested on: SNB-78
SF-268 = tested on: SF-268
SNB-75 = tested on: SNB-75
HT-29 = tested on: HT-29
SN12C = tested on: SN12C
M19-MEL = tested on: M19-MEL
SK-MEL-28 = tested on: SK-MEL-28
HOP-18 = tested on: HOP-18
SNB-19 = tested on: SNB-19
SF-539 = tested on: SF-539
DMS-273 = tested on: DMS-273

Measured: GI50

O=C1OC(c2ccccc2)=N/C1=C\c1cc(Cl)ccc1Cl
inactive: K562 18.1 µM | NCI-H23 > 100 µM | ACHN > 100 µM | OVCAR-4 > 100 µM | 786-0 62.2 µM | HOP-62 > 100 µM | SNB-78 44.5 µM | SF-268 66.2 µM | SNB-75 3.48 µM | HT-29 > 100 µM | SN12C 80.2 µM | M19-MEL > 100 µM | SK-MEL-28 > 100 µM | HOP-18 > 100 µM | SNB-19 > 100 µM | SF-539 72.4 µM

COc1ccc(C2N3CCCCC3[C@@H]3c4[nH]c5ccccc5c4CCN23)c(OC)c1 (stereo not given in full)
inactive: K562 26.7 µM | NCI-H23 22.6 µM | ACHN 23.6 µM | OVCAR-4 25.5 µM | 786-0 33.7 µM | HOP-62 84.7 µM | SNB-78 18.9 µM | SF-268 21.1 µM | HT-29 15.8 µM | SN12C 18 µM | M19-MEL 20 µM | SK-MEL-28 19.1 µM | DMS-273 16.4 µM | HOP-18 > 100 µM | SNB-19 39.4 µM | SF-539 18.5 µM

O=C(N/N=C/c1ccccc1O)c1cccc([N+](=O)[O-])c1
inactive: K562 22.4 µM | NCI-H23 16.5 µM | ACHN 8.41 µM | OVCAR-4 50.5 µM | 786-0 6.47 µM | SNB-78 > 86.3 µM | SF-268 15.7 µM | HT-29 5.93 µM | SN12C 21.1 µM | M19-MEL 12.9 µM | SK-MEL-28 25 µM | DMS-273 6.43 µM | HOP-18 28.5 µM | SNB-19 > 58.9 µM | SF-539 13.8 µM

COc1cc2ccc3c4cc(OC)c(OC(C)C)cc4c[n+](C)c3c2cc1OC
inactive: K562 22.7 µM | NCI-H23 95.7 µM | ACHN > 100 µM | OVCAR-4 64 µM | 786-0 99.3 µM | HOP-62 > 100 µM | SF-268 32.7 µM | SNB-75 34 µM | HT-29 > 100 µM | SN12C 31.5 µM | M19-MEL 29 µM | SK-MEL-28 33.6 µM | HOP-18 23.4 µM | SNB-19 > 100 µM | SF-539 40.4 µM

O=C(CC1SC(Nc2ccccc2Cl)=NC1=O)Nc1ccc(Cl)cc1Cl (stereo not given)
inactive: NCI-H23 > 100 µM | ACHN > 100 µM | OVCAR-4 > 100 µM | 786-0 > 100 µM | HOP-62 > 100 µM | SNB-78 > 100 µM | SF-268 > 100 µM | SNB-75 > 100 µM | HT-29 > 100 µM | SN12C > 100 µM | M19-MEL > 100 µM | SK-MEL-28 > 100 µM | HOP-18 > 100 µM | SNB-19 > 100 µM

CSc1ccc2c(cc1=O)C(NC(=O)c1ccc(C#N)cc1)CCc1cc(O)c(O)c(O)c1-2 (stereo not given)
inactive: K562 7.26 µM | NCI-H23 27.6 µM | ACHN > 100 µM | OVCAR-4 12.1 µM | 786-0 37.2 µM | HOP-62 > 100 µM | SNB-78 5.58 µM | SF-268 43.4 µM | SNB-75 4.2 µM | HT-29 29 µM | SN12C 19.8 µM | M19-MEL 11.9 µM | SK-MEL-28 > 100 µM | DMS-273 34.9 µM | SNB-19 41.9 µM | SF-539 15.5 µM

CN1N=C(Nc2ccccc2)Sc2c1cnn(-c1ccccc1)c2=O
inactive: K562 30.6 µM | NCI-H23 66.1 µM | ACHN > 100 µM | OVCAR-4 94.4 µM | 786-0 > 100 µM | HOP-62 > 100 µM | HT-29 > 100 µM | SN12C > 100 µM | M19-MEL > 100 µM | DMS-273 > 100 µM | HOP-18 20 µM | SNB-19 96.4 µM | SF-539 > 100 µM

Cc1cnc[nH]c1=O
inactive: K562 > 100 µM | NCI-H23 > 100 µM | ACHN > 100 µM | OVCAR-4 > 100 µM | 786-0 > 100 µM | HOP-62 > 100 µM | SNB-78 > 100 µM | SF-268 > 100 µM | SNB-75 > 100 µM | HT-29 > 100 µM | SN12C > 100 µM | M19-MEL > 100 µM | SK-MEL-28 > 100 µM | DMS-273 > 100 µM | HOP-18 > 100 µM | SNB-19 > 100 µM

CCCN1C(=O)CNC(=O)c2[nH]cnc21
inactive: K562 > 100 µM | NCI-H23 > 100 µM | ACHN > 100 µM | 786-0 > 100 µM | HOP-62 > 100 µM | SNB-78 > 100 µM | SF-268 > 100 µM | SNB-75 > 100 µM | HT-29 > 100 µM | SN12C > 100 µM | M19-MEL > 100 µM | SK-MEL-28 > 100 µM | HOP-18 > 100 µM | SNB-19 > 100 µM | SF-539 > 100 µM

Nc1cc2c3c(cccc3c1)C(=O)N(CCN1CCN(CCN3C(=O)c4cccc5cc(N)cc(c45)C3=O)CC1)C2=O
inactive: K562 > 100 µM | NCI-H23 > 100 µM | ACHN > 100 µM | OVCAR-4 > 100 µM | 786-0 > 100 µM | HOP-62 > 100 µM | SF-268 91.2 µM | SNB-75 > 100 µM | HT-29 32 µM | SN12C > 100 µM | M19-MEL > 100 µM | SK-MEL-28 > 100 µM | DMS-273 > 100 µM | HOP-18 > 100 µM | SNB-19 76.2 µM | SF-539 > 100 µM

CC(=O)OC1CC2C(C)(C)OC(=O)CC(OC(C)=O)[C@]2(C)C2CCC3(C)C(=CCC3c3ccoc3)[C@]12C (stereo not given in full)
inactive: K562 14 µM | NCI-H23 27.2 µM | ACHN 25.1 µM | OVCAR-4 46.5 µM | 786-0 19.4 µM | HOP-62 24 µM | SNB-78 48.9 µM | SF-268 21.1 µM | SNB-75 18.3 µM | HT-29 15.7 µM | SN12C 32.6 µM | M19-MEL 17.5 µM | SK-MEL-28 94.6 µM | DMS-273 13.7 µM | SNB-19 14.3 µM | SF-539 26.8 µM

COc1cccc(-c2cc(=O)c3cc(C)c(C)c(C(=O)O)c3o2)c1
inactive: K562 > 100 µM | NCI-H23 > 100 µM | ACHN > 100 µM | OVCAR-4 > 100 µM | 786-0 > 100 µM | HOP-62 > 100 µM | SNB-78 > 100 µM | SF-268 > 100 µM | SNB-75 16.9 µM | HT-29 > 100 µM | SN12C > 100 µM | M19-MEL > 100 µM | SK-MEL-28 > 100 µM | DMS-273 > 100 µM | SNB-19 > 100 µM | SF-539 > 100 µM

CCCCCCCCCCCCCCCCCc1nnc(N)o1
inactive: K562 > 100 µM | NCI-H23 47.4 µM | ACHN > 100 µM | OVCAR-4 > 100 µM | 786-0 > 100 µM | HOP-62 > 100 µM | SNB-78 > 100 µM | SF-268 > 100 µM | SNB-75 > 100 µM | HT-29 > 100 µM | SN12C > 100 µM | M19-MEL > 100 µM | SK-MEL-28 > 100 µM | DMS-273 > 100 µM | SNB-19 > 100 µM | SF-539 > 100 µM
